“Also recorded” adds a separate entry of the source. Where two headings read alike, the source gives them in different places.
Columns and labels:
[1] = Stability of sodium peracetate oxidant solution (half-life, loss of active oxidant); format: physicochemical
Text: However, the sodium peracetate oxidant solutions were discovered to be stable enough, when diluted to below 1% concentration, to have a working time practical for producing large volumes of treatment fluids in a tank for down-hole well treatment applications including hydrogen sulfide mitigation, bacteria reduction, iron sulfide scale cleaning and polymer gel breaking.
In some embodiments, to conduct a well treatment a large, diluted volume of sodium peracetate oxidant solution is preferably staged in a carrier fluid having no oxidant demand. The carrier fluid may include fresh water, salt water, treated production water and, optionally, combined with other treatment chemicals such as hydrochloric acid, citric acid, acetic acid, acid-containing micellar solvent, corrosion inhibitor, and iron chelant. Lower concentrations, less than 1%, of sodium peracetate oxidant may be staged for a limited period of time with small losses in active oxidant. For example, a 0.25% solution is expected to lose about 4-6% of its active sodium peracetate per hour at 20° C. A container, tank or tanker truck of sodium peracetate solution must be vented to release oxygen gas byproduct evolved from the oxidant as it naturally degrades in a carrier fluid.
In this example a diluted sodium peracetate oxidant solution is staged in 500 barrel (21,000 gal) quantities produced in a 55 minute period. […]

[2] = test system: naturally occurring microbes; test: Preservation of guar mixture against microbial growth; format: cell-based; settings: about 65 mg/L oxidant, at least a week at room temperature
Description: The use of the sodium peracetate oxidant formulation was tested for the depolymerization and break down of guar gum.
The guar mixture was made by rapidly mixing 10 g/L food grade guar gum powder into a 10 g/L sodium chloride solution in distilled water. The blended mixture was heated to about 35-40° C. in a heated water bath for at least one hour to fully hydrate the guar. The mixture appeared translucent with fine, milky white suspended solids. […] Several 60 mL portions of the guar mixture were prepared for different treatments as summarized in Table I. The first was a control sample to which no oxidant was added. The remaining samples had increasing amounts of sodium peracetate oxidant added to them. […] The oxidant was rapidly mixed with the guar mixture resulting in a pale yellow color. The mixtures were placed in a water bath at about 35-40° C. and the yellow color gradually faded away over the next hour. After two hours the samples were cooled to room temperature.
The control sample remained viscous for a day, but lost viscosity after sitting at room temperature overnight and microbial growth as a biofilm was visible after a week. […] The fine, suspended solids settled out leaving a clear, colorless solution. A second treatment of the last sample reduced the viscosity further by a small amount.

Total bacteria = test: Removal of bacteria from high H2S water, Luminultra ATP test method (Example 17); format: cell-based
Description: A high H2S water sample near Odessa, Tex., USA was tested for H2S and bacteria removal.
A 600 mL portion of the water was transferred by siphon pump to a 1 L beaker outfitted with a magnetic stir bar, pH probe, ORP probe and a sealed cover with a small opening for adding chemicals. The solution was mixed at a moderate rate at room temperature using a magnetic stir plate while a 17% hydrogen peroxide solution was added in a 1.9:1 molar ratio of oxidant to sulfide to remove about 80% of the H2S. […] After 10 minutes of reaction time aluminum coagulant and anionic flocculation polymer dispersion were added causing a rapid flocculation and settling of most of the pale yellow solids. The clarified supernatant was decanted to a second beaker outfitted the same as the first.
A 500 mL portion of the supernatant above was mixed while a 2.1% sodium peracetate solution was added in a 1.6:1 molar ratio of oxidant to sulfide to remove the remaining 20% of the H2S and promote a final clarification and bacteria removal. […] After 10 minutes of reaction time aluminum coagulant and anionic flocculation polymer dispersion were added causing a rapid flocculation and settling of the pale solids.

[3] = test system: acid producing bacteria (APB); test: Uintah basin produced water: acid producing bacteria level; format: cell-based; settings: for APB: untreated 100-1000
Description: (§1) Produced water from the Uintah basin in eastern Utah was tested for sulfide treatment and clarification with sodium peracetate solution. The untreated water appeared green-grey in color, was pH 8.1 and contained about 30 mg/L H2S (as S^2), 90 mg/L organic or other sulfides (as S^2−), and 90 mg/L sulfate. Total iron was about 5 mg/L therefore iron sulfide was only a minor sulfide component.
(§2) A first water sample was treated by a “partial oxidation” in Table II with sodium peracetate oxidant solution. The water was stirred in a closed container while sodium peracetate oxidant was added in a 1.25:1 molar ratio of oxidant to H2S. Aluminum coagulant (about 35 mg/L as Al) was added with the oxidant. The mixture was stirred for 30 seconds and then about 5 mg/L of anionic polymer was added. Large floe formed rapidly over the next 60 seconds and then stirring was stopped. The flocculated solids settled rapidly leaving a clear, colorless supernatant. The “partial oxidation” treatment removed hydrogen sulfide and reduced acid producing bacteria (APB) and sulfate reducing bacteria (SRB) levels to 1-10 cells/mL for each. The ORP increased from −166 mV to 88 mV vs SHE (oxidant was fully consumed) and there was a 20 ppm increase in sulfate concentration due to oxidation of a small portion of sulfur-containing contaminants to sulfate.
(§3) A second water sample was treated by a “full oxidation” in Table II with sodium peracetate oxidant solution. The water was stirred in a closed container while sodium peracetate oxidant was added in a 3.8:1 molar ratio of oxidant to H2S. Aluminum coagulant (about 35 mg/L as Al) was added with the oxidant. The mixture was stirred for 30 seconds and then about 5 mg/L of anionic polymer was added. Large floe formed rapidly over the next 60 seconds and then stirring was stopped. The flocculated solids settled rapidly leaving a clear, colorless supernatant. […]

[4] = test system: sulfate reducing bacteria (SRB); test: Uintah basin produced water: sulfate reducing bacteria level; format: cell-based; settings: for SRB: untreated 10-100
Description: as §1, §2, §3

[5] = 7% sodium peracetate solution in clean water; cited from earlier work
[6] = for time until ORP rose above 100 mV indicating H2S fully oxidized: 80 mg/L H2S water
Description: Hydrogen peroxide is an inexpensive oxidant for H2S removal, but is slow acting relative to several other oxidants. Shortening the reaction time or contact time required in a water treatment process reduces the volume of contact basins or increases the throughput of a treatment process such as that described in Example 17.
A portion of the 80 mg/L H2S water was treated by mixing into it a 17% wt/wt solution of hydrogen peroxide such that the molar ratio of hydrogen peroxide to sulfide was about 5.7:1. Hydrogen peroxide was added in excess such that it was not a limiting reagent in the oxidation reaction. The ORP and pH of the water was monitored to track the oxidation rate of H2S. FIG. 3 depicts the progression of ORP and pH over time during oxidation.
A second portion of the 80 mg/L H2S water was treated by mixing into it a 17% wt/wt solution of hydrogen peroxide such that the molar ratio of hydrogen peroxide to sulfide was about 5.7:1. A small portion of muriatic acid (about 34% hydrochloric acid solution) was added with the hydrogen peroxide to slightly lower the pH to between 6.5 and 7.0 thereby converting at least a portion of the NaHS to H2S and accelerate the reaction rate. FIG. 4 depicts the progression of ORP and pH over time during oxidation.

[7] = Treated Water Full Oxidation (3.8:1)
[8] = Treated Water Partial Oxidation (1.25:1)
[9] = full oxidation (3.8:1), after 4 months at room temperature

Row | Compound | loss of active oxidant concentration ([1]; 0.2% diluted solution, in 55 minutes at 25° C.) [%] | loss of active sodium peracetate per hour ([1]; 0.25% solution, 20° C.) | microbial growth in guar mixture (preservative effect) [2] | ATP and corresponding bacteria population reduced by, relative to the untreated water (Total bacteria; after second step: sodium peracetate 1.6:1 following hydrogen peroxide step) [%] | ATP concentration in supernatant (Total bacteria; second step: sodium peracetate 1.6:1 after hydrogen peroxide step) [pg/mL] | APB [3, 7] [cells/mL] | APB [3, 8] | grow back of APB [3, 9] | SRB [4, 7] [cells/mL] | SRB [4, 8] | grow back of SRB [4, 9] | half-life [5] | ATP and corresponding bacteria population reduced by (Total bacteria; first step: hydrogen peroxide 1.9:1, then coagulant and polymer) | ATP concentration in supernatant (Total bacteria; first step: hydrogen peroxide 1.9:1, then coagulant and polymer, untreated 280 pg/mL) [pg/mL] | time until ORP rose above 100 mV indicating H2S fully oxidized ([6]; 17% wt/wt hydrogen peroxide, 5.7:1 molar to sulfide, no acid) | time until ORP rose above 100 mV indicating H2S fully oxidized ([6]; hydrogen peroxide 5.7:1 with muriatic acid, pH between 6.5 and 7.0) | rate of H2S oxidation when acid was added with the oxidant ([6]; hydrogen peroxide 5.7:1 with muriatic acid versus without)
1 | sodium peracetate [sodium peracetate oxidant solution] | ~4 | 4-6% | did act as a preservative; also recorded: no microbial growth was observed | 99 | 3 | <1 | 1-10 cells/mL | no detectable grow back | <1 | 1-10 cells/mL | no detectable grow back | about 80 minutes |  |  |  |  | 
2 | OO [hydrogen peroxide] |  |  |  |  |  |  |  |  |  |  |  |  | about 95% | 14 | about 22 minutes | about 9 minutes | approximately doubled

— patent US10941063B2 (priority 2015, dated 2021)
